{"source": "PubChem BioAssay (NCI)", "assay_in_all_cases": "NCI anticancer screen, dose series, 384-well format", "key": {"NCI-H23 lung": {"system": "NCI-H23 lung"}, "HCT-15 colon": {"system": "HCT-15 colon"}, "NCI/ADR-RES ovarian": {"system": "NCI/ADR-RES ovarian"}, "SNB-19 CNS": {"system": "SNB-19 CNS"}, "UO-31 renal": {"system": "UO-31 renal"}, "MOLT-4 leukemia": {"system": "MOLT-4 leukemia"}, "UACC-62 melanoma": {"system": "UACC-62 melanoma"}, "SNB-75 CNS": {"system": "SNB-75 CNS"}, "CAKI-1 renal": {"system": "CAKI-1 renal"}, "HT29 colon": {"system": "HT29 colon"}, "HOP-92 NSCLC": {"system": "HOP-92 NSCLC"}, "SF-539 CNS": {"system": "SF-539 CNS"}, "HL-60(TB) leukemia": {"system": "HL-60(TB) leukemia"}, "A549 NSCLC": {"system": "A549 NSCLC"}, "LOX IMVI melanoma": {"system": "LOX IMVI melanoma"}, "UACC-257 melanoma": {"system": "UACC-257 melanoma"}, "DU-145 prostate": {"system": "DU-145 prostate"}, "NCI-H522 lung": {"system": "NCI-H522 lung"}, "OVCAR-8 ovarian": {"system": "OVCAR-8 ovarian"}, "786-0 renal": {"system": "786-0 renal"}, "PC-3 prostate": {"system": "PC-3 prostate"}, "MALME-3M melanoma": {"system": "MALME-3M melanoma"}, "BT-549 breast": {"system": "BT-549 breast"}, "TK-10 renal": {"system": "TK-10 renal"}, "ACHN renal": {"system": "ACHN renal"}, "SN12C renal": {"system": "SN12C renal"}, "MDA-MB-231 breast": {"system": "MDA-MB-231 breast"}, "HOP-62 NSCLC": {"system": "HOP-62 NSCLC"}, "NCI-H226 lung": {"system": "NCI-H226 lung"}}, "note": "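Abbreviation: GI50, concentration required for 50% inhibition of growth. Definition used: TGI = concentration required for complete inhibition of growth.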", "data": [{"smiles": "C=CC(=O)N[C@@H]1CN(c2nc(Nc3cn(C)nc3OC)c3ncn(C)c3n2)C[C@H]1F", "values": [{"measurement": "GI50", "setting": "NCI-H23 lung", "result": 16.2, "unit": "µM"}, {"measurement": "TGI", "setting": "NCI-H23 lung", "result": 35.6, "unit": "µM"}, {"measurement": "GI50", "setting": "HCT-15 colon", "result": 37.1, "unit": "µM"}, {"measurement": "TGI", "setting": "HCT-15 colon", "result": "> 100", "unit": "µM"}, {"measurement": "GI50", "setting": "NCI/ADR-RES ovarian", "result": "> 100", "unit": "µM"}, {"measurement": "TGI", "setting": "NCI/ADR-RES ovarian", "result": "> 100", "unit": "µM"}, {"measurement": "GI50", "setting": "SNB-19 CNS", "result": 30, "unit": "µM"}, {"measurement": "TGI", "setting": "SNB-19 CNS", "result": "> 100", "unit": "µM"}, {"measurement": "GI50", "setting": "UO-31 renal", "result": 26.3, "unit": "µM"}, {"measurement": "TGI", "setting": "UO-31 renal", "result": "> 100", "unit": "µM"}, {"measurement": "GI50", "setting": "MOLT-4 leukemia", "result": 16.6, "unit": "µM"}, {"measurement": "TGI", "setting": "MOLT-4 leukemia", "result": 30.8, "unit": "µM"}, {"measurement": "GI50", "setting": "UACC-62 melanoma", "result": 23.1, "unit": "µM"}, {"measurement": "TGI", "setting": "UACC-62 melanoma", "result": "> 100", "unit": "µM"}, {"measurement": "GI50", "setting": "SNB-75 CNS", "result": 22.9, "unit": "µM"}, {"measurement": "TGI", "setting": "SNB-75 CNS", "result": 59.9, "unit": "µM"}, {"measurement": "GI50", "setting": "CAKI-1 renal", "result": 1.26, "unit": "µM"}, {"measurement": "TGI", "setting": "CAKI-1 renal", "result": "> 100", "unit": "µM"}, {"measurement": "GI50", "setting": "HT29 colon", "result": 20.5, "unit": "µM"}, {"measurement": "TGI", "setting": "HT29 colon", "result": 54.4, "unit": "µM"}, {"measurement": "GI50", "setting": "HOP-92 NSCLC", "result": 23.4, "unit": "µM"}, {"measurement": "TGI", "setting": "HOP-92 NSCLC", "result": "> 100", "unit": "µM"}, {"measurement": "GI50", "setting": "SF-539 CNS", "result": 29.9, "unit": "µM"}, {"measurement": "TGI", "setting": "SF-539 CNS", "result": 89.6, "unit": "µM"}, {"measurement": "GI50", "setting": "HL-60(TB) leukemia", "result": 12.3, "unit": "µM"}, {"measurement": "TGI", "setting": "HL-60(TB) leukemia", "result": 25.1, "unit": "µM"}, {"measurement": "GI50", "setting": "A549 NSCLC", "result": 21.4, "unit": "µM"}, {"measurement": "TGI", "setting": "A549 NSCLC", "result": "> 100", "unit": "µM"}, {"measurement": "GI50", "setting": "LOX IMVI melanoma", "result": 34.6, "unit": "µM"}, {"measurement": "TGI", "setting": "LOX IMVI melanoma", "result": "> 100", "unit": "µM"}, {"measurement": "GI50", "setting": "UACC-257 melanoma", "result": 33.6, "unit": "µM"}, {"measurement": "TGI", "setting": "UACC-257 melanoma", "result": "> 100", "unit": "µM"}, {"measurement": "GI50", "setting": "DU-145 prostate", "result": 13.8, "unit": "µM"}, {"measurement": "TGI", "setting": "DU-145 prostate", "result": 49.1, "unit": "µM"}, {"measurement": "GI50", "setting": "NCI-H522 lung", "result": 0.0389, "unit": "µM"}, {"measurement": "TGI", "setting": "NCI-H522 lung", "result": 15.7, "unit": "µM"}, {"measurement": "GI50", "setting": "OVCAR-8 ovarian", "result": 19.5, "unit": "µM"}, {"measurement": "TGI", "setting": "OVCAR-8 ovarian", "result": 58.4, "unit": "µM"}, {"measurement": "GI50", "setting": "786-0 renal", "result": 37.3, "unit": "µM"}, {"measurement": "TGI", "setting": "786-0 renal", "result": "> 100", "unit": "µM"}, {"measurement": "GI50", "setting": "PC-3 prostate", "result": 39.4, "unit": "µM"}, {"measurement": "TGI", "setting": "PC-3 prostate", "result": "> 100", "unit": "µM"}, {"measurement": "GI50", "setting": "MALME-3M melanoma", "result": 17.5, "unit": "µM"}, {"measurement": "TGI", "setting": "MALME-3M melanoma", "result": 60.2, "unit": "µM"}, {"measurement": "GI50", "setting": "BT-549 breast", "result": 25.4, "unit": "µM"}, {"measurement": "TGI", "setting": "BT-549 breast", "result": 70.9, "unit": "µM"}, {"measurement": "GI50", "setting": "TK-10 renal", "result": 0.319, "unit": "µM"}, {"measurement": "TGI", "setting": "TK-10 renal", "result": 39.1, "unit": "µM"}, {"measurement": "GI50", "setting": "ACHN renal", "result": 1.9, "unit": "µM"}, {"measurement": "TGI", "setting": "ACHN renal", "result": "> 100", "unit": "µM"}, {"measurement": "GI50", "setting": "SN12C renal", "result": 34.2, "unit": "µM"}, {"measurement": "TGI", "setting": "SN12C renal", "result": "> 100", "unit": "µM"}, {"measurement": "GI50", "setting": "MDA-MB-231 breast", "result": 24.3, "unit": "µM"}, {"measurement": "TGI", "setting": "MDA-MB-231 breast", "result": 98.4, "unit": "µM"}, {"measurement": "GI50", "setting": "HOP-62 NSCLC", "result": 31.9, "unit": "µM"}, {"measurement": "TGI", "setting": "HOP-62 NSCLC", "result": "> 100", "unit": "µM"}, {"measurement": "GI50", "setting": "NCI-H226 lung", "result": 20.2, "unit": "µM"}, {"measurement": "TGI", "setting": "NCI-H226 lung", "result": 62.2, "unit": "µM"}]}]}
